The source of these data is ChEMBL document CHEMBL1147900, “Immuno-stimulating properties of diosgenyl saponins isolated from Paris polyphylla” (Bioorg Med Chem Lett, 2007).

Common to all, as to format: functional, cell-based
For experiment [1], the system named is RAW. As to the kind of experiment: Induction of respiratory burst in mouse RAW 264.7 cells at 10 nM assessed as superoxide anion production after 2 hrs by NBT test.
The test system of experiment [2] is RAW. Briefly: Effect on phagocytic activity in mouse RAW 264.7 cells after 24 hrs.
Experiment [3] concerns RAW. As to the kind of experiment: Effect on NO production in mouse RAW 264.7 cells at 100 nM.
Experiment [4] has as its system RAW. Briefly: Effect on phagocytic activity in mouse RAW 264.7 cells at 10 uM after 24 hrs.

Active and inactive are the calls of the source. No cut-off for these calls is given here.

For `C[C@@H]1CC[C@@]2(OC1)O[C@H]1C[C@H]3[C@@H]4CC=C5C[C@@H](O)CC[C@]5(C)[C@H]4CC[C@]3(C)[C@H]1[C@@H]2C`, the result in the experiment on RAW [1] and in the experiment with RAW [3] was inactive. Also, the outcome with RAW [2] was Active.
For `C[C@H]1CC[C@@]2(OC1)O[C@H]1C[C@H]3[C@@H]4CC=C5C[C@@H](O[C@@H]6O[C@@H](CO)[C@H](O[C@H]7O[C@H](C)[C@@H](O[C@H]8O[C@H](C)[C@@H](O)[C@H](O)[C@@H]8O)[C@H](O)[C@@H]7O)[C@@H](O)[C@@H]6O[C@@H]6O[C@@H](C)[C@@H](O)[C@H](O)[C@@H]6O)CC[C@]5(C)[C@H]4CC[C@]3(C)[C@H]1[C@@H]2C`, the outcome in the experiment on RAW [1], with RAW [2], in the experiment with RAW [3] and in the experiment on RAW [4] was Active.
